Structures are written as SMILES.

This is an account of results in BindingDB's records for doi:10.1016/j.ejmech.2023.115292 (National Research Centre, 2023).

A short description of assay [1]: Inhibition of SARS-CoV-2 RdRp transfected in human A549 cells incubated for 24 hrs by […]. In general terms: Tetrazolium assays rely on reduction of a dye to a coloured formazan, in cell work by metabolically active cells.
Assay [2] can be described thus: Inhibition of SARS-CoV-2 RdRp transfected in HEK293T cells incubated for 24 hrs by […].

For `CCOc1cccc(CNC(=O)CSc2cn(C(=O)OC(C)(C)C)c3ccccc23)c1`, the figures for the concentration giving a half-maximal response (EC50) in assay [1] and in assay [2] were 1.18 µM and 1.41 µM, respectively. On to `O=C(CSc1c[nH]c2ccccc12)c1ccc(Cl)c(Cl)c1`, for which the EC50 in assay [2] stood at 2.75 µM. Still for that read-out and setting: the same measure for `Cc1cccc(C(=O)CSc2c[nH]c3ccccc23)c1`: 2.53 µM.

For orientation: EC50 means the concentration giving half of the maximal effect. Low readings indicate a more potent agent, high ones a less potent agent.
